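Compound exposure: 48 hours, 5 concentrations, 96-well plates. Here, GI50 denotes the concentration required for 50% inhibition of growth.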 The source made the active and inactive calls. No stated cut-off is given here; in the data, active = GI50 up to about 1.1 µM and inactive = higher.
Columns and labels:
Test in all cases: NCI tumour cell line growth inhibition, 48 h
NCI-H226 = test system: NCI-H226
RPMI-8226 = test system: RPMI-8226
U-251 = test system: U-251
HCC 2998 = test system: HCC 2998
DLD-1 = test system: DLD-1
OVCAR-4 = test system: OVCAR-4
Malme-3M = test system: Malme-3M
SK-OV-3 = test system: SK-OV-3
NCI-H23 = test system: NCI-H23
NCI-H460 = test system: NCI-H460
SW-620 = test system: SW-620
HOP-18 = test system: HOP-18
LOX IMVI = test system: LOX IMVI
UO-31 = test system: UO-31
CAKI-1 = test system: CAKI-1
HOP-92 = test system: HOP-92
MDA-MB-435 = test system: MDA-MB-435
BT-549 = test system: BT-549
COLO 205 = test system: COLO 205
NCI/ADR-RES = test system: NCI/ADR-RES

SMILES | GI50 (NCI-H226) | GI50 (RPMI-8226) | GI50 (U-251) | GI50 (HCC 2998) | GI50 (DLD-1) | GI50 (OVCAR-4) | GI50 (Malme-3M) | GI50 (SK-OV-3) | GI50 (NCI-H23) | GI50 (NCI-H460) | GI50 (SW-620) | GI50 (HOP-18) | GI50 (LOX IMVI) | GI50 (UO-31) | GI50 (CAKI-1) | GI50 (HOP-92) | GI50 (MDA-MB-435) | GI50 (BT-549) | GI50 (COLO 205) | GI50 (NCI/ADR-RES)
COc1cccc2c1C(=O)c1c(O)c3c(c(O)c1C2=O)C[C@@](O)(C(=O)CO)CC3OC1CC(NCCCC(OC(C)=O)OC(C)=O)C(O)C(C)O1 (some centres not stated) | 0.00153 µM (active) | 0.00322 µM (active) | 0.00308 µM (active) | 0.00228 µM (active) | 0.0023 µM (active) | 0.00151 µM (active) | 0.00209 µM (active) | 0.00501 µM (active) | 0.00182 µM (active) | 0.000895 µM (active) | 0.00202 µM (active) | 0.00413 µM (active) | 0.000233 µM (active) | 0.00151 µM (active) | 0.00296 µM (active) | 0.00277 µM (active) |  |  |  | 
CN1Cc2ccccc2C2(COc3ccccc3C2=O)C1 (configuration not stated) | 35.7 µM (inactive) | 68.7 µM (inactive) | > 100 µM (inactive) | > 100 µM (inactive) | 92.9 µM (inactive) | 92.3 µM (inactive) | > 100 µM (inactive) | > 100 µM (inactive) | > 100 µM (inactive) | > 100 µM (inactive) | > 100 µM (inactive) | > 100 µM (inactive) | > 100 µM (inactive) | 57.4 µM (inactive) | > 100 µM (inactive) | 20 µM (inactive) |  |  |  | 
CN(C)CC1CCCCCCCCCC(CN(C)C)C1=O (configuration not stated) | > 43 µM (inactive) | > 22 µM (inactive) | > 37.5 µM (inactive) | > 100 µM (inactive) | > 100 µM (inactive) |  | > 35.2 µM (inactive) | > 28.8 µM (inactive) | > 27.6 µM (inactive) | > 36.8 µM (inactive) | > 21.2 µM (inactive) | > 100 µM (inactive) |  | > 38.7 µM (inactive) | > 35.4 µM (inactive) | 20.4 µM (inactive) | 4.94 µM (inactive) | 6.21 µM (inactive) | > 38.1 µM (inactive) | 6.43 µM (inactive)
NC1=NC(c2ccccc2)CC(c2cc(Cl)cc(Br)c2O)=N1 (configuration not stated) | 18.9 µM (inactive) | 7.31 µM (inactive) | 12.5 µM (inactive) | 13.6 µM (inactive) | 12 µM (inactive) | 15.4 µM (inactive) | 4.55 µM (inactive) | 24.7 µM (inactive) | 10.8 µM (inactive) | 12.4 µM (inactive) | 8.2 µM (inactive) | 17.7 µM (inactive) | 12.7 µM (inactive) | 16.4 µM (inactive) | 13.3 µM (inactive) | 18 µM (inactive) |  |  | 13 µM (inactive) | 9.35 µM (inactive)
C[C@]12CCc3nonc3C1CC[C@@H]1C2CC[C@]2(C)C(=O)CCC12 (some centres not stated) | 76.9 µM (inactive) | 17.5 µM (inactive) | 48.6 µM (inactive) | 26.5 µM (inactive) | 50 µM (inactive) | > 100 µM (inactive) | 24.9 µM (inactive) | 33 µM (inactive) | 30.8 µM (inactive) | > 100 µM (inactive) | 40.1 µM (inactive) | > 100 µM (inactive) | 21.5 µM (inactive) | 20.6 µM (inactive) | 14.8 µM (inactive) | 20 µM (inactive) |  |  | 24.3 µM (inactive) | 
COc1ccc(/C=C\c2cc(OC)c(OC)c(OC)c2)c(O)c1O [COMBRETASTATIN A-1] |  | 0.0757 µM (active) | 0.0759 µM (active) | 0.166 µM (active) | 0.123 µM (active) | 2.2 µM (inactive) | 0.678 µM (active) |  |  | 0.0463 µM (active) | 0.0643 µM (active) | > 26.4 µM (inactive) | 0.119 µM (active) | 0.91 µM (active) | 0.238 µM (active) | 0.112 µM (active) | < 0.01 µM (active) | < 0.0223 µM (active) | 6.65 µM (inactive) | 
COc1cccc2c1C(=O)c1c(O)c3c(c(O)c1C2=O)C[C@](O)(C(=O)CO)CC3OC1CC(N)C(OC2CCCCO2)C(C)O1 (some centres not stated) | 0.0805 µM (active) | 0.112 µM (active) | 0.0658 µM (active) | 0.621 µM (active) | 0.675 µM (active) | 0.659 µM (active) | 0.0752 µM (active) | 0.531 µM (active) | 0.051 µM (active) | < 0.01 µM (active) | 0.0598 µM (active) | 0.383 µM (active) | 0.232 µM (active) | 1.48 µM (inactive) | 0.0353 µM (active) | 0.239 µM (active) |  |  | 0.329 µM (active) | 
COc1ccc2[nH]c3c(C)c4c(c(C)c3c2c1)CN(C)C=C4 | 0.267 µM (active) | 7.24 µM (inactive) | 0.219 µM (active) | 2.71 µM (inactive) | 1.92 µM (inactive) | 3.95 µM (inactive) | 1.21 µM (inactive) | 7.23 µM (inactive) | 0.424 µM (active) | 1.32 µM (inactive) | 1.35 µM (inactive) | 7.38 µM (inactive) | 9.77 µM (inactive) | 24.5 µM (inactive) | 9.23 µM (inactive) | 2.79 µM (inactive) | 21.2 µM (inactive) | 1.97 µM (inactive) | 1.29 µM (inactive) | 91.8 µM (inactive)
CCC1=CC2CN3CCc4c([nH]c5ccccc45)C(C(=O)OC)(C2)C13 (configuration not stated) | 11 µM (inactive) | 18.5 µM (inactive) | 7.26 µM (inactive) | 48.3 µM (inactive) | 45.9 µM (inactive) | 37.2 µM (inactive) | 50.4 µM (inactive) | 69.3 µM (inactive) | 45.6 µM (inactive) | 52.6 µM (inactive) | 41.9 µM (inactive) | 47.9 µM (inactive) | 61.8 µM (inactive) | 32.2 µM (inactive) | 20.8 µM (inactive) | 12.4 µM (inactive) |  |  | 39.4 µM (inactive) | 45.5 µM (inactive)
Nc1ncnc2c(C3OC(CO)C(O)C3O)n[nH]c12 (configuration not stated) |  | 0.159 µM (active) | 2.53 µM (inactive) | 0.0375 µM (active) | 0.0575 µM (active) | 0.582 µM (active) | 0.432 µM (active) |  | 1.12 µM (inactive) | 0.0826 µM (active) | 0.106 µM (active) | 0.0592 µM (active) | 0.0647 µM (active) | 0.0551 µM (active) |  | 0.0513 µM (active) |  |  | 2.42 µM (inactive) | 0.076 µM (active)
NC(CCCNc1ccc(O)cc1)C(=O)O (configuration not stated) | > 100 µM (inactive) | 24.4 µM (inactive) | > 100 µM (inactive) | 40.6 µM (inactive) | 20.4 µM (inactive) | 17.6 µM (inactive) | > 56.1 µM (inactive) | > 100 µM (inactive) | 97.9 µM (inactive) | > 59.6 µM (inactive) | 21.3 µM (inactive) | > 76.4 µM (inactive) | 18.5 µM (inactive) | > 60 µM (inactive) | 48.2 µM (inactive) | 26.5 µM (inactive) |  |  | > 54.2 µM (inactive) | 
COC(=O)C(=O)C(C(=O)C(=O)Nc1ccc([N+](=O)[O-])cc1[N+](=O)[O-])c1nc2ccc([N+](=O)[O-])cc2nc1O (configuration not stated) | > 100 µM (inactive) | > 100 µM (inactive) | > 100 µM (inactive) | > 100 µM (inactive) | > 100 µM (inactive) | > 100 µM (inactive) | > 100 µM (inactive) | > 100 µM (inactive) | > 100 µM (inactive) | > 100 µM (inactive) | > 100 µM (inactive) | 22.1 µM (inactive) | > 100 µM (inactive) | 53 µM (inactive) | > 100 µM (inactive) | > 100 µM (inactive) |  |  | > 100 µM (inactive) | 
N=C(NC(=N)Nc1ccc(S(=O)(=O)Nc2cnc3ccccc3n2)cc1)Nc1ccc(Br)cc1 | > 100 µM (inactive) | > 100 µM (inactive) | > 100 µM (inactive) | > 100 µM (inactive) | > 100 µM (inactive) | > 100 µM (inactive) | > 100 µM (inactive) | > 100 µM (inactive) | > 100 µM (inactive) | > 100 µM (inactive) | > 100 µM (inactive) | > 100 µM (inactive) | > 100 µM (inactive) | > 100 µM (inactive) | > 100 µM (inactive) | > 100 µM (inactive) |  |  | > 100 µM (inactive) | 
